Laboratory results taken from PubChem BioAssay (NCI).
Values joined by “and” are separate entries in the source; they are usually repeats but may differ in a detail not shown here. Equal entries are not always repeated.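 Step 1: Grow cells in 96-well plates. Step 2: Expose to compound for 48 hours at 5 concentrations. Step 3: Interpolate endpoints linearly; if unreached, use highest concentration. GI50 is the concentration that inhibits growth by half. The concentration for full growth arrest is given as TGI.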

Tests used:
Test in all cases: NCI-60 cell line screen, 48 h
786-0 renal = tested on: 786-0 renal
A498 renal = tested on: A498 renal
A549 NSCLC = tested on: A549 NSCLC
ACHN renal = tested on: ACHN renal
BT-549 breast = tested on: BT-549 breast
CAKI-1 renal = tested on: CAKI-1 renal
CCRF-CEM leukemia = tested on: CCRF-CEM leukemia
COLO 205 colon = tested on: COLO 205 colon
DLD-1 colon = tested on: DLD-1 colon
DMS 114 small cell lung = tested on: DMS 114 small cell lung
DMS 273 small cell lung = tested on: DMS 273 small cell lung
DU-145 prostate = tested on: DU-145 prostate
EKVX NSCLC = tested on: EKVX NSCLC
HCC-2998 colon = tested on: HCC-2998 colon
HCT-116 colon = tested on: HCT-116 colon
HCT-15 colon = tested on: HCT-15 colon
HL-60(TB) leukemia = tested on: HL-60(TB) leukemia
HOP-18 NSCLC = tested on: HOP-18 NSCLC
HOP-62 NSCLC = tested on: HOP-62 NSCLC
HOP-92 NSCLC = tested on: HOP-92 NSCLC
HS 578T breast = tested on: HS 578T breast
HT29 colon = tested on: HT29 colon
IGROV1 ovarian = tested on: IGROV1 ovarian
K-562 leukemia = tested on: K-562 leukemia
KM12 colon = tested on: KM12 colon
KM20L2 colon = tested on: KM20L2 colon
LOX IMVI melanoma = tested on: LOX IMVI melanoma
LXFL 529 NSCLC = tested on: LXFL 529 NSCLC
M14 melanoma = tested on: M14 melanoma
M19-MEL melanoma = tested on: M19-MEL melanoma
MALME-3M melanoma = tested on: MALME-3M melanoma
MDA-MB-231 breast = tested on: MDA-MB-231 breast
MDA-MB-435 = tested on: MDA-MB-435
MDA-N = tested on: MDA-N
MOLT-4 leukemia = tested on: MOLT-4 leukemia
NCI-H226 lung = tested on: NCI-H226 lung
NCI-H460 lung = tested on: NCI-H460 lung
NCI-H522 lung = tested on: NCI-H522 lung
OVCAR-3 ovarian = tested on: OVCAR-3 ovarian
OVCAR-4 ovarian = tested on: OVCAR-4 ovarian
OVCAR-5 ovarian = tested on: OVCAR-5 ovarian
OVCAR-8 ovarian = tested on: OVCAR-8 ovarian
PC-3 prostate = tested on: PC-3 prostate
RPMI-8226 leukemia = tested on: RPMI-8226 leukemia
RXF 393 renal = tested on: RXF 393 renal
SF-268 CNS = tested on: SF-268 CNS
SF-295 CNS = tested on: SF-295 CNS
SF-539 CNS = tested on: SF-539 CNS
SK-MEL-2 melanoma = tested on: SK-MEL-2 melanoma
SK-MEL-28 melanoma = tested on: SK-MEL-28 melanoma
SK-MEL-5 melanoma = tested on: SK-MEL-5 melanoma
SK-OV-3 ovarian = tested on: SK-OV-3 ovarian
SN12C renal = tested on: SN12C renal
SNB-19 CNS = tested on: SNB-19 CNS
SNB-75 CNS = tested on: SNB-75 CNS
SNB-78 CNS = tested on: SNB-78 CNS
SR leukemia = tested on: SR leukemia
SW-620 colon = tested on: SW-620 colon
TK-10 renal = tested on: TK-10 renal
U251 CNS = tested on: U251 CNS
UACC-257 melanoma = tested on: UACC-257 melanoma
UACC-62 melanoma = tested on: UACC-62 melanoma
UO-31 renal = tested on: UO-31 renal
XF 498 CNS = tested on: XF 498 CNS
NCI-H23 lung = tested on: NCI-H23 lung
RXF-631 renal = tested on: RXF-631 renal

COC1/C=C\C=C(/C)C(=O)Nc2cc3nc4ccc(Br)cc4oc-3c(c2=O)CC(C)CC(OC)C(O)C(C)/C=C(\C)C1OC(N)=O (configuration not stated)
GI50 (786-0 renal): 0.00576 µM | TGI (786-0 renal): 12 µM | TGI (A498 renal): 30.9 µM | TGI (A549 NSCLC): 22.7 µM | GI50 (ACHN renal): 0.00459 µM | TGI (ACHN renal): 15.6 µM | GI50 (BT-549 breast): 10.1 µM | TGI (BT-549 breast): 22.6 µM | TGI (CAKI-1 renal): 16.3 µM | GI50 (CCRF-CEM leukemia): 0.00247 µM and 0.0182 µM | TGI (CCRF-CEM leukemia): 1.9 µM | GI50 (COLO 205 colon): 0.000903 µM | TGI (COLO 205 colon): 0.169 µM | TGI (DLD-1 colon): 8.29 µM | TGI (DMS 114 small cell lung): 5.34 µM | TGI (DMS 273 small cell lung): 4.19 µM | GI50 (DU-145 prostate): 0.00403 µM | TGI (DU-145 prostate): 18 µM | TGI (EKVX NSCLC): 25.9 µM | GI50 (HCC-2998 colon): 0.00856 µM | TGI (HCC-2998 colon): 3.2 µM | GI50 (HCT-116 colon): 0.00083 µM | TGI (HCT-116 colon): 4.92 µM | GI50 (HCT-15 colon): 0.00583 µM | TGI (HCT-15 colon): 6.99 µM | GI50 (HL-60(TB) leukemia): 0.000389 µM | TGI (HOP-18 NSCLC): 17.3 µM | TGI (HOP-62 NSCLC): 21.2 µM | GI50 (HOP-92 NSCLC): 0.00757 µM | TGI (HOP-92 NSCLC): 4.81 µM | TGI (HS 578T breast): 22.9 µM | TGI (HT29 colon): 7.91 µM | GI50 (IGROV1 ovarian): 0.00312 µM | TGI (IGROV1 ovarian): 19.2 µM | GI50 (K-562 leukemia): 0.000503 µM | TGI (K-562 leukemia): 7.03 µM | TGI (KM12 colon): 13.4 µM | TGI (KM20L2 colon): 3.65 µM | GI50 (LOX IMVI melanoma): 0.00271 µM | TGI (LOX IMVI melanoma): 0.959 µM | TGI (LXFL 529 NSCLC): 9.42 µM | GI50 (M14 melanoma): 0.00414 µM | TGI (M14 melanoma): 5.33 µM | TGI (M19-MEL melanoma): 2.26 µM | GI50 (MALME-3M melanoma): 0.00493 µM | TGI (MALME-3M melanoma): 12.6 µM | GI50 (MDA-MB-231 breast): 0.0321 µM | TGI (MDA-MB-231 breast): 11.5 µM | GI50 (MDA-MB-435): 0.0342 µM | TGI (MDA-MB-435): 2.99 µM | GI50 (MDA-N): 0.0124 µM | TGI (MDA-N): 1.27 µM | GI50 (MOLT-4 leukemia): 0.0031 µM | TGI (MOLT-4 leukemia): 0.466 µM | TGI (NCI-H226 lung): 17.7 µM | GI50 (NCI-H460 lung): 0.00446 µM | TGI (NCI-H460 lung): 17.9 µM | GI50 (NCI-H522 lung): 0.00141 µM | TGI (NCI-H522 lung): 0.142 µM | TGI (OVCAR-3 ovarian): 3.84 µM | TGI (OVCAR-4 ovarian): 3.97 µM | GI50 (OVCAR-5 ovarian): 0.00434 µM | TGI (OVCAR-5 ovarian): 5.88 µM | TGI (OVCAR-8 ovarian): 14.5 µM | GI50 (PC-3 prostate): 0.00574 µM | TGI (PC-3 prostate): 24.5 µM | GI50 (RPMI-8226 leukemia): 0.00867 µM | TGI (RPMI-8226 leukemia): 16 µM | TGI (RXF 393 renal): 8.61 µM | TGI (SF-268 CNS): 18.1 µM | TGI (SF-295 CNS): 25.8 µM | GI50 (SF-539 CNS): 0.00745 µM | TGI (SF-539 CNS): 11.3 µM | TGI (SK-MEL-2 melanoma): 24.5 µM | GI50 (SK-MEL-28 melanoma): 0.000391 µM | TGI (SK-MEL-5 melanoma): 9.44 µM | TGI (SK-OV-3 ovarian): 15.3 µM | TGI (SN12C renal): 6.36 µM | TGI (SNB-19 CNS): 29.4 µM | TGI (SNB-75 CNS): 23.8 µM | TGI (SNB-78 CNS): 30 µM | GI50 (SR leukemia): 0.00272 µM | TGI (SR leukemia): 0.634 µM | GI50 (SW-620 colon): 0.000996 µM | TGI (SW-620 colon): 2.75 µM | GI50 (TK-10 renal): 0.00681 µM | TGI (TK-10 renal): 17.6 µM | TGI (U251 CNS): 28.7 µM | GI50 (UACC-257 melanoma): 0.00321 µM | TGI (UACC-257 melanoma): 6.93 µM | GI50 (UACC-62 melanoma): 0.00162 µM | TGI (UO-31 renal): 4.05 µM | TGI (XF 498 CNS): 0.466 µM

O=C1CCCCCCCCCCC(=O)C2CCOCCOCCOCCC1Cc1cccc(n1)C2
TGI (786-0 renal): > 100 µM | TGI (A498 renal): > 100 µM | TGI (A549 NSCLC): > 100 µM | TGI (ACHN renal): > 100 µM | TGI (CAKI-1 renal): > 100 µM | TGI (CCRF-CEM leukemia): > 100 µM | TGI (COLO 205 colon): > 100 µM | TGI (DLD-1 colon): > 100 µM | TGI (DMS 114 small cell lung): > 100 µM | TGI (DMS 273 small cell lung): > 100 µM | TGI (EKVX NSCLC): > 100 µM | TGI (HCC-2998 colon): > 100 µM | TGI (HCT-116 colon): > 100 µM | TGI (HCT-15 colon): > 100 µM | TGI (HOP-62 NSCLC): > 100 µM | TGI (HT29 colon): > 100 µM | TGI (IGROV1 ovarian): > 100 µM | TGI (K-562 leukemia): > 100 µM | TGI (KM12 colon): > 100 µM | TGI (KM20L2 colon): > 100 µM | TGI (LOX IMVI melanoma): > 100 µM | TGI (LXFL 529 NSCLC): > 100 µM | TGI (M14 melanoma): > 100 µM | TGI (M19-MEL melanoma): > 100 µM | TGI (MALME-3M melanoma): > 100 µM | TGI (MOLT-4 leukemia): > 100 µM | TGI (NCI-H226 lung): > 100 µM | TGI (NCI-H23 lung): > 100 µM | TGI (NCI-H460 lung): > 100 µM | TGI (NCI-H522 lung): > 100 µM | TGI (OVCAR-3 ovarian): > 100 µM | TGI (OVCAR-4 ovarian): > 100 µM | TGI (OVCAR-8 ovarian): > 100 µM | TGI (RPMI-8226 leukemia): > 100 µM | TGI (RXF 393 renal): > 100 µM | TGI (RXF-631 renal): > 100 µM | TGI (SF-268 CNS): > 100 µM | TGI (SF-295 CNS): > 100 µM | TGI (SF-539 CNS): > 100 µM | TGI (SK-MEL-2 melanoma): > 100 µM | TGI (SK-MEL-28 melanoma): > 100 µM | TGI (SK-MEL-5 melanoma): > 100 µM | TGI (SK-OV-3 ovarian): > 100 µM | TGI (SN12C renal): > 100 µM | TGI (SNB-19 CNS): > 100 µM | TGI (SNB-75 CNS): > 100 µM | TGI (SNB-78 CNS): > 100 µM | TGI (SW-620 colon): > 100 µM | TGI (TK-10 renal): > 100 µM | TGI (U251 CNS): > 100 µM | TGI (UACC-257 melanoma): > 100 µM | TGI (UACC-62 melanoma): > 100 µM | TGI (UO-31 renal): > 100 µM | TGI (XF 498 CNS): > 100 µM
